# Data taken from PubChem BioAssay AID1259407 (Chemical Carcinogenesis Research Information System (CCRIS), 2018).
# Calls of active or inactive are those of the source. The rule behind the calls is not given here.
# Test system: CCRIS mutagenicity, Ames/micronucleus/aberration tests
# Assay: CCRIS mutagenicity studies
# [1] = Test System: AMES SALMONELLA TYPHIMURIUM, Strain/Indicator: TA100, Metabolic Activation: NONE, Method: PREINCUBATION
# [2] = Test System: AMES SALMONELLA TYPHIMURIUM, Strain/Indicator: TA98, Metabolic Activation: NONE, Method: STANDARD PLATE
# [3] = Test System: AMES SALMONELLA TYPHIMURIUM, Strain/Indicator: TA100, Metabolic Activation: NONE, Method: STANDARD PLATE
smiles,measurement,setting,value
Fc1c(F)c(Cl)c(F)c(Cl)c1F,mutagenic call,"Test System: AMES SALMONELLA TYPHIMURIUM, Strain/Indicator: TA98, Metabolic Activation: NONE, Method: PREINCUBATION",inactive; negative
same,mutagenic call,"Test System: AMES SALMONELLA TYPHIMURIUM, Strain/Indicator: TA98, Metabolic Activation: RAT, LIVER, S-9, AROCLOR 1254, Method: PREINCUBATION",inactive; negative
same,mutagenic call,[1],inactive; negative
same,mutagenic call,"Test System: AMES SALMONELLA TYPHIMURIUM, Strain/Indicator: TA100, Metabolic Activation: RAT, LIVER, S-9, AROCLOR 1254, Method: PREINCUBATION",inactive; negative
same,mutagenic call,"Test System: AMES SALMONELLA TYPHIMURIUM, Strain/Indicator: TA1535, Metabolic Activation: NONE, Method: PREINCUBATION",inactive; negative
same,mutagenic call,"Test System: AMES SALMONELLA TYPHIMURIUM, Strain/Indicator: TA1535, Metabolic Activation: RAT, LIVER, S-9, AROCLOR 1254, Method: PREINCUBATION",inactive; negative
same,mutagenic call,"Test System: AMES SALMONELLA TYPHIMURIUM, Strain/Indicator: TA1537, Metabolic Activation: NONE, Method: PREINCUBATION",inactive; negative
same,mutagenic call,"Test System: AMES SALMONELLA TYPHIMURIUM, Strain/Indicator: TA1537, Metabolic Activation: RAT, LIVER, S-9, AROCLOR 1254, Method: PREINCUBATION",inactive; negative
same,mutagenic call,"Test System: AMES SALMONELLA TYPHIMURIUM, Strain/Indicator: TA1538, Metabolic Activation: NONE, Method: PREINCUBATION",inactive; negative
same,mutagenic call,"Test System: AMES SALMONELLA TYPHIMURIUM, Strain/Indicator: TA1538, Metabolic Activation: RAT, LIVER, S-9, AROCLOR 1254, Method: PREINCUBATION",inactive; negative
same,mutagenic call,"Test System: CHINESE HAMSTER OVARY, Strain/Indicator: CHO-K1-BH4 (HGPRT)/6-THIOGUANINE, Metabolic Activation: NONE, Method: SUSPENSION/PLATE",inactive; negative
same,mutagenic call,"Test System: CHINESE HAMSTER OVARY, Strain/Indicator: CHO-K1-BH4 (HGPRT)/6-THIOGUANINE, Metabolic Activation: RAT, LIVER, S-9, AROCLOR 1254, Method: SUSPENSION/PLATE",inactive; negative
Nc1nc(N)nc(Cl)n1,mutagenic call,"Test System: AMES SALMONELLA TYPHIMURIUM, Strain/Indicator: TA97, Metabolic Activation: NONE, Method: STANDARD PLATE",inactive; negative
same,mutagenic call,[2],inactive; negative
same,mutagenic call,[3],inactive; negative
CNc1ccc2ccc3ccc(O)cc3c2c1,mutagenic call,"Test System: AMES SALMONELLA TYPHIMURIUM, Strain/Indicator: TA98, Metabolic Activation: RAT, LIVER, S-9, AROCLOR 1254, Method: STANDARD PLATE",active; positive
same,mutagenic call,"Test System: AMES SALMONELLA TYPHIMURIUM, Strain/Indicator: TA98, Metabolic Activation: RAT, LIVER, S-9, AROCLOR, Method: STANDARD PLATE",active; positive
Nc1nc2c(ncn2[C@@H]2C=C[C@H](CO)C2)c(=O)[nH]1,mutagenic call,"Test System: AMES SALMONELLA TYPHIMURIUM, Strain/Indicator: TA98, Metabolic Activation: HAMSTER, LIVER, S-9, AROCLOR 1254 (10%), Method: STANDARD PLATE",inactive; negative
same,mutagenic call,[2],inactive; negative
same,mutagenic call,"Test System: AMES SALMONELLA TYPHIMURIUM, Strain/Indicator: TA98, Metabolic Activation: RAT, LIVER, S-9, AROCLOR 1254 (10%), Method: STANDARD PLATE",inactive; negative
same,mutagenic call,"Test System: AMES SALMONELLA TYPHIMURIUM, Strain/Indicator: TA100, Metabolic Activation: HAMSTER, LIVER, S-9, AROCLOR 1254 (10%), Method: STANDARD PLATE",inactive; negative
same,mutagenic call,[3],inactive; negative
same,mutagenic call,"Test System: AMES SALMONELLA TYPHIMURIUM, Strain/Indicator: TA100, Metabolic Activation: RAT, LIVER, S-9, AROCLOR 1254 (10%), Method: STANDARD PLATE",inactive; negative
same,mutagenic call,"Test System: AMES SALMONELLA TYPHIMURIUM, Strain/Indicator: TA1535, Metabolic Activation: HAMSTER, LIVER, S-9, AROCLOR 1254 (10%), Method: STANDARD PLATE",inactive; negative
same,mutagenic call,"Test System: AMES SALMONELLA TYPHIMURIUM, Strain/Indicator: TA1535, Metabolic Activation: NONE, Method: STANDARD PLATE",inactive; negative
same,mutagenic call,"Test System: AMES SALMONELLA TYPHIMURIUM, Strain/Indicator: TA1535, Metabolic Activation: RAT, LIVER, S-9, AROCLOR 1254 (10%), Method: STANDARD PLATE",inactive; negative
same,mutagenic call,"Test System: AMES SALMONELLA TYPHIMURIUM, Strain/Indicator: TA1537, Metabolic Activation: HAMSTER, LIVER, S-9, AROCLOR 1254 (10%), Method: STANDARD PLATE",inactive; negative
same,mutagenic call,"Test System: AMES SALMONELLA TYPHIMURIUM, Strain/Indicator: TA1537, Metabolic Activation: NONE, Method: STANDARD PLATE",inactive; negative
same,mutagenic call,"Test System: AMES SALMONELLA TYPHIMURIUM, Strain/Indicator: TA1537, Metabolic Activation: RAT, LIVER, S-9, AROCLOR 1254 (10%), Method: STANDARD PLATE",inactive; negative
same,mutagenic call,"Test System: AMES SALMONELLA TYPHIMURIUM, Strain/Indicator: TA1538, Metabolic Activation: HAMSTER, LIVER, S-9, AROCLOR 1254 (10%), Method: STANDARD PLATE",inactive; negative
same,mutagenic call,"Test System: AMES SALMONELLA TYPHIMURIUM, Strain/Indicator: TA1538, Metabolic Activation: NONE, Method: STANDARD PLATE",inactive; negative
same,mutagenic call,"Test System: AMES SALMONELLA TYPHIMURIUM, Strain/Indicator: TA1538, Metabolic Activation: RAT, LIVER, S-9, AROCLOR 1254 (10%), Method: STANDARD PLATE",inactive; negative
same,mutagenic call,"Test System: MOUSE LYMPHOMA, Strain/Indicator: L5178Y (TK+/TK-), Metabolic Activation: NONE, Method: SUSPENSION/PLATE",inactive; negative. reevaluation of results: inconclusive
same,mutagenic call,"Test System: MOUSE LYMPHOMA, Strain/Indicator: L5178Y (TK+/TK-), Metabolic Activation: RAT, LIVER, S-9, AROCLOR 1254, Method: SUSPENSION/PLATE",active; positive; reevaluation of results: positive
same,mutagenic call,"Test System: Mouse lymphoma, Strain/Indicator: L5178Y (tk+/tk-), Metabolic Activation: None, Method: Suspension/plate",inactive; negative
same,mutagenic call,"Test System: Mouse lymphoma, Strain/Indicator: L5178Y (tk+/tk-), Metabolic Activation: Rat, Liver, S-9, Aroclor 1254, Method: Suspension/plate",inactive; negative
Oc1cc2ccccc2c2cc3c(ccc4ccccc43)nc12,mutagenic call,"Test System: AMES SALMONELLA TYPHIMURIUM, Strain/Indicator: TA100, Metabolic Activation: GUINEA PIG, LIVER, S-9, 3-METHYLCHOLANTHRENE, Method: STANDARD PLATE",inactive; negative
same,mutagenic call,"Test System: CHINESE HAMSTER V-79, Strain/Indicator: V-79/6-THIOGUANINE, Metabolic Activation: GUINEA PIG, LIVER, S-9, 3-METHYLCHOLANTHRENE",inactive; negative
CCCCN(C[C@H](CO)OCc1ccccc1)N=O,mutagenic call,[1],inactive; negative
same,mutagenic call,"Test System: AMES SALMONELLA TYPHIMURIUM, Strain/Indicator: TA100, Metabolic Activation: RAT, LIVER, S-9, PCB, Method: PREINCUBATION",active; positive
